This note sets out measurements from patent US6019997A, “Hydroalcoholic compositions for transdermal penetration of pharmaceutical agents” (priority 1997, dated 2000).

Assay type in all cases: physicochemical
A short description of series [1]: Melt temperature (Tm). The note with it: result in words. Here is the method: The melt temperature was measured by placing approximately 15 grams sample in a 25 cc sealed glass vial and placing the vial in a water bath. The temperature of the bath was increased periodically in discrete increments and the contents checked after approximately 1 hour at a given temperature. The melt temperature was taken as the temperature at which the mixture became very low in viscosity.

A short description of series [2]: Emulsion stability. The settings on record: concentrations below about 1% by weight.
Series [3] can be described thus: Viscosity (Brookfield LVDV-I+ viscometer, 23° C.). The note with it: result in words. The protocol: In the following Examples (except where indicated) viscosity was measured at 23° C. at ambient pressure using a Brookfield LVDV-I^+ viscometer equipped with a model D Brookfield heliopath and T spindles B-F. The spindle and speed was chosen for each particular sample such that the viscometer was operating in the middle of its range. All samples were allowed to equilibrate at 23° C. for 24 hours prior to measurement. Preferably the viscosity is taken at the lowest speed possible while staying within 20-80% of the viscometer range and more preferably between 30-70% of the range. In all cases the sample size and container geometry was chosen to ensure that there were no wall effects. By "wall effects" it is meant the viscosity value is not affected by the container and is essentially equivalent to the viscosity taken in an infinitely large container. For this reason lower viscosity samples required a larger sample size to accommodate the larger spindles. The following table outlines preferred spindles for various sample viscosities.
The viscosity of each sample was taken as the highest relatively stable reading achieved on the first path the spindle traversed using the heliopath adapter.

With `CCCCCCCCCCCCOCCOCCOCCOCCO` [laureth-4], the “effect of emollient on melt temperature of the composition” value in series [1] is listed as “tends to decrease the melt temperature of the composition”. The “phase separation when heated above the melt temperature” value in series [2] is given as “does not phase out”. For trioctyldodecyl citrate, in series [1], the “effect of emollient on melt temperature of the composition” value is “significantly decrease the melt temperature of some systems”. As to `CCCCCCCCCCCCCCCC` [hexadecane], the “effect of emollient on viscoelasticity of certain emulsifier systems” value in series [3] is “can increase the viscoelasticity of certain emulsifier systems”.
